Reference: article PMC10035947, “Development of novel anilinoquinazoline-based carboxylic acids as non-classical carbonic anhydrase IX and XII inhibitors” (Journal of Enzyme Inhibition and Medicinal Chemistry, 2023)
Like-named read-outs stand apart in the source and are kept apart here.

Assays:
Assay in all cases: NCI SRB assay
Assay type in all cases: cell-based, human
SF-268 = conditions: for CC50: read-out: LC50 (the source's name)
IGROV1 = conditions: for CC50: read-out: LC50 (the source's name)
NCI/ADR-RES = conditions: for CC50: read-out: LC50 (the source's name)
MCF7 = conditions: for CC50: read-out: LC50 (the source's name)
UACC-257 = conditions: for CC50: read-out: LC50 (the source's name)
HL-60(TB) = conditions: for CC50: read-out: LC50 (the source's name)
RPMI-8226 = conditions: for CC50: read-out: LC50 (the source's name)
EKVX = conditions: for GI50 / LC50 (concentration killing 50% of cells) / TGI: 5-dose
SK-OV-3 = conditions: for CC50: read-out: LC50 (the source's name)
A498 = conditions: for CC50: read-out: LC50 (the source's name)
LOX IMVI = test system: LOX IMVI
NCI-H23 = test system: NCI-H23
NCI-H226 = test system: NCI-H226
[1] = Homo sapiens, IGROV-1, IGROV1, 5-dose
[2] = Homo sapiens, MCF7, MCF7, 5-dose
[3] = Homo sapiens, RPMI-8226, RPMI-8226, 5-dose

## Cc1ccc(-c2nc(Nc3ccccc3C(=O)O)c3ccccc3n2)cc1 [6b, 2-((2-(p-Tolyl)quinazolin-4-yl)amino)benzoic acid]
SF-268; Homo sapiens, SF-268, SF-268, 5-dose
  CC50: > 100 µM
SF-268; Homo sapiens, SF-268, 5-dose
  GI50: 14.3 µM
SF-268; SF-268, 10 μM
  GI%: 89%
SF-268; SF-268, 1.00E-5 Molar
  Growth Percent: 11.24%
SF-268; SF-268, 5-dose
  TGI: <100 µM
  CC50: < 100 µM
SF-268; SF-268, 5-dose, listed as D - 835857
  TGI: > 1.00E-4 Molar
IGROV1; [1]
  GI50: 19.1 µM
  CC50: > 100 µM
IGROV1; IGROV1, 10 μM
  GI%: 69%
IGROV1; IGROV1, 1.00E-5 Molar
  Growth Percent: 31.06%
IGROV1; IGROV1, 5-dose
  TGI: 87.1 µM
  CC50: < 100 µM
IGROV1; IGROV1, 5-dose, listed as D - 835857
  TGI: 8.71E-5 Molar
NCI/ADR-RES; 10 μM
  GI%: 95%
NCI/ADR-RES; 1.00E-5 Molar
  Growth Percent: 5.16%
NCI/ADR-RES; 5-dose
  TGI: 98.5 µM
  CC50: < 100 µM
NCI/ADR-RES; 5-dose, listed as D - 835857
  TGI: 9.85E-5 Molar
NCI/ADR-RES; Homo sapiens, 5-dose
  GI50: 16.8 µM
  CC50: > 100 µM
MCF7; [2]
  GI50: 9.41 µM
  CC50: > 100 µM
MCF7; MCF7, 10 μM
  GI%: 92%
MCF7; MCF7, 1.00E-5 Molar
  Growth Percent: 7.70%
MCF7; MCF7, 5-dose
  GI50: 9.4 µM
  TGI: 89.9 µM
  CC50: < 100 µM
MCF7; MCF7, 5-dose, listed as D - 835857
  TGI: 8.99E-5 Molar
UACC-257; Homo sapiens, UACC-257, UACC-257, 5-dose
  CC50: > 100 µM
UACC-257; Homo sapiens, UACC-257, 5-dose
  GI50: 15.3 µM
UACC-257; UACC-257, 10 μM
  GI%: 71%
UACC-257; UACC-257, 1.00E-5 Molar
  Growth Percent: 28.64%
UACC-257; UACC-257, 5-dose
  TGI: 90.3 µM
  CC50: < 100 µM
UACC-257; UACC-257, 5-dose, listed as D - 835857
  TGI: 9.03E-5 Molar
HL-60(TB); HL-60(TB), 10 μM
  GI%: 82%
HL-60(TB); HL-60(TB), 1.00E-5 Molar
  Growth Percent: 17.80%
HL-60(TB); HL-60(TB), 5-dose
  TGI: 75.4 µM
  CC50: < 100 µM
HL-60(TB); HL-60(TB), 5-dose, listed as D - 835857
  TGI: 7.54E-5 Molar
HL-60(TB); Homo sapiens, HL-60, HL-60(TB), 5-dose
  CC50: > 100 µM
HL-60(TB); Homo sapiens, HL-60(TB), 5-dose
  GI50: 12.9 µM
RPMI-8226; [3]
  GI50: 4.44 µM
  CC50: > 100 µM
RPMI-8226; RPMI-8226, 10 μM
  GI%: 83%
RPMI-8226; RPMI-8226, 1.00E-5 Molar
  Growth Percent: 17.08%
RPMI-8226; RPMI-8226, 5-dose
  GI50: 4.4 µM
  TGI: <100 µM
  CC50: < 100 µM
RPMI-8226; RPMI-8226, 5-dose, listed as D - 835857
  TGI: > 1.00E-4 Molar
EKVX; 10 μM
  GI%: 87%
EKVX; 1.00E-5 Molar
  Growth Percent: 13.07%
EKVX
  GI50: 8.9 µM
  LC50 (concentration killing 50% of cells): < 100 µM
  TGI: 56.2 µM
EKVX; listed as D - 835857
  TGI: 5.62E-5 Molar
EKVX; Homo sapiens
  GI50: 8.89 µM
  LC50 (concentration killing 50% of cells): > 100 µM
SK-OV-3; Homo sapiens, SK-OV-3, SK-OV-3, 5-dose
  CC50: > 100 µM
SK-OV-3; Homo sapiens, SK-OV-3, 5-dose
  GI50: 11.9 µM
SK-OV-3; SK-OV-3, 10 μM
  GI%: 69%
SK-OV-3; SK-OV-3, 1.00E-5 Molar
  Growth Percent: 31.32%
SK-OV-3; SK-OV-3, 5-dose
  TGI: 55.3 µM
  CC50: < 100 µM
SK-OV-3; SK-OV-3, 5-dose, listed as D - 835857
  TGI: 5.53E-5 Molar
A498; A498, 10 μM
  GI%: 78%
A498; A498, 1.00E-5 Molar
  Growth Percent: 21.64%
A498; A498, 5-dose
  TGI: 58.1 µM
  CC50: < 100 µM
A498; A498, 5-dose, listed as D - 835857
  TGI: 5.81E-5 Molar
A498; Homo sapiens, A498, A498, 5-dose
  CC50: > 100 µM
A498; Homo sapiens, A498, 5-dose
  GI50: 19.9 µM
LOX IMVI; 10 μM
  GI%: 91%
LOX IMVI; 1.00E-5 Molar
  Growth Percent: 8.57%
LOX IMVI; 5-dose
  TGI: 31.6 µM
LOX IMVI; 5-dose, listed as D - 835857
  TGI: 3.16E-5 Molar
LOX IMVI; Homo sapiens, 5-dose
  GI50: 10.2 µM
LOX IMVI; Homo sapiens, 5-dose, read-out: LC50 (the source's name)
  CC50: 97.7 µM
NCI-H23; Homo sapiens, NCI-H23, NCI-H23, 5-dose
  LC50: > 100 µM
NCI-H23; Homo sapiens, NCI-H23, 5-dose
  GI50: 15.7 µM
NCI-H23; NCI-H23, 10 μM
  GI%: 104%
NCI-H23; NCI-H23, 1.00E-5 Molar
  Growth Percent: -4.11%
NCI-H23; NCI-H23, 5-dose
  LC50: < 100 µM
  TGI: 44.4 µM
NCI-H23; NCI-H23, 5-dose, listed as D - 835857
  TGI: 4.44E-5 Molar
NCI-H226; Homo sapiens, NCI-H226, NCI-H226, 5-dose
  LC50: > 100 µM
NCI-H226; Homo sapiens, NCI-H226, 5-dose
  GI50: 10.2 µM
NCI-H226; NCI-H226, 10 μM
  GI%: 85%
NCI-H226; NCI-H226, 1.00E-5 Molar
  Growth Percent: 15.34%
NCI-H226; NCI-H226, 5-dose
  LC50: < 100 µM
  TGI: 54.2 µM
NCI-H226; NCI-H226, 5-dose, listed as D - 835857
  TGI: 5.42E-5 Molar
